Laboratory results published in publication PMC12118671, “Increased imaging ligand hydrophilicity and improved pharmacokinetic properties provides enhanced in vivo targeting of fibroblast activation protein” (npj Imaging, 2024).
Several values for one entry are separate records, joined by “and”; a condition that tells them apart may be missing. Equal entries are not always repeated.

What was measured:
FAP [1] = system: FAP; set-up: method as in PMID 29626119; conditions: read-out: EC50 through competition assays; cited from earlier work
[2] = target: T1, cell surface FAP (HEK293-hFAP cells) (Homo sapiens, UniProt Q12884); test: Competition assay against FAPI-ALB-AF647 for indirect KD; type: binding; conditions: competition with FAPI-ALB-AF647, 60 nM each, 30 min on ice, read-out: KD (nM), indirectly calculated
T1 construct: expressed in transfected cells; host or cells: HEK293 (ATCC, CRL-1573), Lipofectamine 3000 transfection, puromycin selection
T1 sequence (Q12884 1-760): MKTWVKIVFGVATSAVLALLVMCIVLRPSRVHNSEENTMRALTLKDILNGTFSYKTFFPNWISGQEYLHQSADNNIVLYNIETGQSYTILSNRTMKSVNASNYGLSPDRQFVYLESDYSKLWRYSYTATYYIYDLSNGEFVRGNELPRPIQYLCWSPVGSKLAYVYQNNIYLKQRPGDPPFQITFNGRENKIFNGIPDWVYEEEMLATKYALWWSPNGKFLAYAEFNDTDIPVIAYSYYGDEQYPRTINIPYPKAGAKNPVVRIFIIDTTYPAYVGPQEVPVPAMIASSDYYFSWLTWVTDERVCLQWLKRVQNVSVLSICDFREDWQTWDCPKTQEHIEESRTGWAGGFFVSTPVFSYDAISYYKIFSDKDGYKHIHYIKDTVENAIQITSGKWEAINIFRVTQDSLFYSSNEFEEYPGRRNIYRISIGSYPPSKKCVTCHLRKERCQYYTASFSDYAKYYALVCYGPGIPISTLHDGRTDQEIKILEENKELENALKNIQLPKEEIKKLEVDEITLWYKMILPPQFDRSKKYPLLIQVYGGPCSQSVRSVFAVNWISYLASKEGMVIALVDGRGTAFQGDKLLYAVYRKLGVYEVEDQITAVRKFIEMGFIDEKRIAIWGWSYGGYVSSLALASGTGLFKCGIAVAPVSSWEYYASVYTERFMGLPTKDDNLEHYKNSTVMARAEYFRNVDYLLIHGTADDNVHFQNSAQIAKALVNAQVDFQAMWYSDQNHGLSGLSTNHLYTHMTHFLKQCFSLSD
Experimental: Both the FAPI-ALB-AF647 and the unlabeled competitor were incubated at 60 nM each on HEK293-hFAP cells for 30 min on ice to approach steady-state binding. The competition assay cells were pelleted and washed twice with PBS w/ 0.1% BSA before being analyzed using a BD Fortessa flow cytometer. The loss in signal from the competition incubation was then compared to the signal of the FAPI-ALB-AF647 incubation alone to determine the relative binding affinity.

[3] = Plasma pharmacokinetics after IV bolus, non-compartmental analysis; type: in vivo, mouse; conditions: for AUC(0-inf) / C0 / clearance / half-life / Vd: mouse, plasma, healthy male DBA1/J mice, Mean ± SEM; for AUC(0-inf) / C0: IV bolus 2 nmol (FAPI dosed 51 nmol, dose normalized to 2 nmol); for clearance / half-life / Vd: IV bolus; for half-life: read-out: Terminal t1/2 (converted); for Vd: read-out: VD,ss; for clearance category (Fig. 1): words in Fig. 1
Experimental: FAPI was dosed IV (51 nmol) via the tail vein to maintain concentrations above LLOQ for PK analysis while all other FAPI conjugates were dosed IV (1 or 2 nmol in 150 µL PBS) via the tail vein. […] Whole blood was diluted with 10 mM EDTA in PBS and spun down to isolate plasma. Fluorescent ligand concentrations were quantified using a LI-COR Odyssey CLx scanner (Lincoln, NE) using a dilution series of fluorescent standards as previously reported. Non-compartmental analysis was conducted using the concentration vs. time profiles for each probe with MATLAB. The predicted initial concentration, terminal phase half-life, exposure (AUC0-inf), AUC extrapolation percentage, volume of distribution at steady state, and terminal clearance were reported for each dosed probe.

FAP [4] = target: T2, FAP (Mus musculus, UniProt P97321); test: In vivo near-infrared imaging of paws with competitive blocking, CIA model
T2 construct: Increased FAP expression with increasing disease severity in CIA mice as assessed with IHC; from tissue; host or cells: inflamed paws of live DBA/1J mice with collagen-induced arthritis
T2 sequence (P97321 1-761): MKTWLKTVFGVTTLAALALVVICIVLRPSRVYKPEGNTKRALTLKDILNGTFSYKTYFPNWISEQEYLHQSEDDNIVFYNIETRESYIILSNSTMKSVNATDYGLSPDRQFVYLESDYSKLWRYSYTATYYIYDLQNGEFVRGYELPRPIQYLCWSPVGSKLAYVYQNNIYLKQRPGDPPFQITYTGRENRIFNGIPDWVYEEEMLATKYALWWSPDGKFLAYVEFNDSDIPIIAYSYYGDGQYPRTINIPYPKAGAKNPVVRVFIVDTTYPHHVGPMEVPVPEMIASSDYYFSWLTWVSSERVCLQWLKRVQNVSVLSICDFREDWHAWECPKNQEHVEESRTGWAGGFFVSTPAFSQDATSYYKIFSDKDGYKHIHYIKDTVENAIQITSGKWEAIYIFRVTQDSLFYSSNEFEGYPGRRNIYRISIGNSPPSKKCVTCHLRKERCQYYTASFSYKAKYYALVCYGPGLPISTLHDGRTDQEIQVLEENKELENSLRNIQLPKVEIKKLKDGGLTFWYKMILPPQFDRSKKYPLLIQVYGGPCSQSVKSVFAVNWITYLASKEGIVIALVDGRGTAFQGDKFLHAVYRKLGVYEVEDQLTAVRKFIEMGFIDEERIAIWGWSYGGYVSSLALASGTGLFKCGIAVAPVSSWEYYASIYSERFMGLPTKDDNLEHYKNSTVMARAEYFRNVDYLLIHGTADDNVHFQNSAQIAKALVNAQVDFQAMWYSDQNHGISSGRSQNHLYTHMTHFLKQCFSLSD

[5] = Plasma protein binding by equilibrium dialysis; type: in vitro ADME; conditions: CD1 mouse plasma, 1 µM, equilibrium dialysis 4 h at 37 °C
Experimental: CD1 mouse plasma protein binding was assessed via equilibrium dialysis. Dry membranes (HT Dialysis, HTD96b) were soaked in DI water for 15 min and then in 30% ethanol for another 15 min. After washing the membranes 3 times with DI water, the membranes were placed in dialysis buffer (potassium phosphate, 50 mM, pH 7.4) until the assay began. At the beginning of the assay, the membranes were placed in the dialysis block and 100 µL of buffer was added to both sides of the membrane to maintain membrane hydration/integrity. Each compound was diluted to 1 µM using plasma and then 100 µL of this mixture was added to one side of the membrane while 100 µl of […] was placed in opposite well. The plate was then sealed and placed on an orbital shaker (150 rpm) in an incubator at 37 °C for 4 h. Afterwards, samples were taken from the donor and acceptor side of the well, vortexed, centrifuged at 3300 rpm for 15 min at 4 °C and then analyzed for compound content using LC/MS.

HEK293-hFAP cells = test: Receptor net internalization assay, flow cytometry with Trypan Blue quench; type: cell-based, human; conditions: endogenous and overexpressing cells together
Experimental: The receptor internalization assay was adapted from a previously published method for peptides[61],[63]. Briefly, HEK293-hFAP cells were sub-cultured into 6-well plates and allowed to adhere for 12–16 h. After washing cells with media, 100 nM of FAPI-AF488 in media was added to each well. Cells were incubated at 37 °C in the continuous presence of FAPI-AF488 and allowed to internalize. At each time point, plates were chilled, wells washed twice with PBS with 0.1% BSA, and cells lifted following Accutase incubation. Lastly, cells were resuspended in PBS or a dilution of 0.4% Trypan Blue before being analyzed via flow cytometry to differentiate between internal and surface fluorescence. The surface fluorescence was determined as (unquenched MFU – quenched MFU)/ɛ, where ɛ is the quenching efficiency determined by comparing the quenched and unquenched signals of cells that had been labeled briefly on ice to prevent internalization. The internal fluorescence was then calculated as total MFU – surface MFU. Non-specific uptake of small molecules was measured using cells where FAPI-AF488 was competed out with 100-fold excess concentration of the unlabeled FAPI. The corrected internal MFU values were plotted against the surface fluorescence integral; the slope of the linear curve is the internalization rate ke[64]. The same procedure was followed for the endogenous RAFLS cells.

| Kd [2] [nM] | AUC(0-inf) [3] [µM·h] | C0 [3] [nM] | clearance [3] [mL/min] | half-life [3] [min] | Vd [3] [L] | clearance category (Fig. 1) [3] | mean fluorescence intensity in healthy paws (FAP [4]; healthy mice, 5 h, 1 nmol IV, no block) | % Protein Bound ± SD [5] | mean fluorescence intensity of FAPI-ALB-800CW in inflamed paws when blocked by this compound (FAP [4]; CIA mice, 24 h, 1 nmol IV probe, blocker co-administered at 50-fold molar excess) | internalization half-life (t1/2) (HEK293-hFAP cells) [h] | effect of co-dosed molar excess blocker on FAPI-800CW uptake in inflamed paws (FAP [4]; CIA mice, 5 h, 50-fold molar excess) | Compound | EC50 (FAP [1]) [nM] |
| --- | --- | --- | --- | --- | --- | --- | --- | --- | --- | --- | --- | --- | --- |
|  |  |  |  |  |  |  |  |  |  |  |  | N#C[C@@H]1CC(F)(F)CN1C(=O)CNC(=O)c1ccnc2ccc(OCCCN3CCN(C(=O)CN4CCN(CC(=O)O)CCN(CC(=O)O)CCN(CC(=O)O)CC4)CC3)cc12 [FAPI-04] | 6.5 |
| 8 | 0.525 ± 0.025 | 1250 ± 52 | 0.0638 | 60 ± 6 | 0.0039 ± 0.0002 | Moderate clearance | 0.026 ± 0.007 |  |  |  |  | CC1(C)C(/C=C/C2=C(Oc3ccc(S(=O)(=O)O)cc3)C(=C/C=C3/N(CCCCS(=O)(=O)O)c4ccc(S(=O)(=O)O)cc4C3(C)C)/CCC2)=[N+](CCCCCC(=O)N2CCN(CCCOc3ccc4nccc(C(=O)NCC(=O)N5CC(F)(F)C[C@H]5C#N)c4c3)CC2)c2ccc(S(=O)(=O)O)cc21.O=C([O-])C(F)(F)F [FAPI-800CW] |  |
| 3.6 | 0.088 ± 0.018 | 189 ± 52 | 0.42 | 54 | 0.0145 ± 0.0084 | Moderate clearance |  | 98.9 ± 0.2% | 0.07 ± 0.01 |  |  | N#CC1CC(F)(F)CN1C(=O)CNC(=O)c1ccnc2ccc(OCCCN3CCN(C(=O)C(N)CCC(=O)NCCOCCOCC(=O)NCc4ccc(S(=O)(=O)NC(=O)c5ccc(-c6ccc(C(F)(F)F)cc6)cc5)cc4)CC3)cc12 (stereo not shown) [FAPI-ALB] |  |
| 6 | 0.014 ± 0.004 | 50 ± 7 | 3.9 | 30 ± 6 | 0.0627 ± 0.0184 | Fast clearance |  | 44.7% and 44.7 ± 3.1% |  | 4 to 8 | did not provide a similar reduction | N#C[C@@H]1CC(F)(F)CN1C(=O)CNC(=O)c1ccnc2ccc(OCCCN3CCNCC3)cc12 [FAPI] |  |
